Laboratory results from US20110160121A1, “UNACYLATED GHRELIN AND ANALOGS AS THERAPEUTIC AGENTS FOR VASCULAR REMODELING IN DIABETIC PATIENTS AND TREATMENT OF CARDIOVASCULAR DISEASE” (ALIZE PHARMA SAS, priority 2008, published 2011).
Where no end group is shown, it is not given here.

How the values were obtained:
CAC [1] = test: CAC cell-cycle progression (percentage of cells in S phase, FACS); type: cell-based, human; details: cultured CAC; effect still evident after 7 days of culture; FIG. 1A
Protocol: First, cell-cycle progression in response to UAG and AG was evaluated. […] To investigate whether this effect relies on inhibition of baseline ROS production, DCF-DA assay was performed. […] H2O2 was used as positive control. AGE-mediated damage signals mainly rely on ROS production (Ref. 29). […] Isolation and Culture of CAC from Peripheral Blood Mononuclear Cells—Peripheral-blood mononuclear cells (PB-MNC) isolated by Fycoll Histopaque 1077 (Sigma) were resuspended in 20% FBS 199 Medium and plated on fibronectin-coated dishes (Biocoat, Becton Dickinson Labware) as described by Hill et al. (Ref. 19). Human UAG studies were performed on CAC recovered from normal donors and diabetic patients. The purity of sorted cells was assessed by FACS analysis (Ref. 20). For experiments, the isolated CAC were cultured under 5% CO2 at 37° C. for 4 days on 20 μg/ml fibronectin-coated dishes in EGM-2 medium containing 10% FBS, hydrocortisone, human Fibroblast Growth Factor, Vascular Endothelial Growth Factor, Insulin Growth Factor 1, ascorbic acid, human Epidermal Growth Factor, gentamicin and amphotericin-B (Cambrex, Walkersville, Md., USA) alone or in combination with 1 μM UAG and 1.2 mg/ml AGE. […] Cell surface molecules were evaluated by flow cytometry as previously described (Ref. 24). Frequency of marker-positive cells is expressed as mean±standard deviation (SD).

CAC [2] = test: Detection of ROS in CAC (DCF-DA assay, FACS); type: cell-based, human
Protocol: First, cell-cycle progression in response to UAG and AG was evaluated. […] To investigate whether this effect relies on inhibition of baseline ROS production, DCF-DA assay was performed. […] H2O2 was used as positive control. AGE-mediated damage signals mainly rely on ROS production (Ref. 29). […] Detection of ROS—DCF-DA (0.5 μM final concentration) was added to CAC in the indicated culture conditions. At the indicated times, the cells were subjected to FACS analysis and processed as previously described (Ref. 22). H2O2 was used as positive control.

CAC [3] = test: Senescence of CAC recovered from type 2 diabetic patients treated with UAG; design: species or system human; details: UAG administered in vivo, CAC recovered after 12 hours, FIG. 2D
Protocol: After 12 hours of treatment, CAC were recovered from UAG treated and untreated patients and cultured.
(§1) All the subjects underwent the following testing session: • UAG (3.0 μg/kg/h iv. as infusion for 12 h from 0 to 12 hours); • isotonic saline (infusion from 0 to 12 hours).
CAC Senescence—Senescence was evaluated by acidic β-gal activity on CAC recovered from normal subjects cultured in EGM2 medium for 4 days with UAG or AGE+UAG and saline- or UAG-treated diabetic patients (Ref. 22). Briefly, CAC were washed in phosphate-buffered saline, fixed for 3 min at room temperature in 2% paraformaldehyde, washed, and incubated for 24 h at 37° C. with fresh SA-β-gal stain solution: 1 mg/ml 5-bromo-4-chloro-3-indolyl β-D-galactopyranoside (X-gal), 5 mM/liter potassium ferrocyanide, 5 mM/liter ferricyanide, 150 mM/liter NaCl, 2 mM/liter MgCl2, 0.01% sodium deoxycholate, and 0.02% Nonidet P-40. SA-β-gal-positive cells were counted manually by 3 independent investigators.

CAC [4] = test: CAC mobilization assay in healthy subjects and diabetic patients; type: in vivo, human; details: diabetic patients compared to normal subjects, treated for 6 hours; FIG. 3B
Protocol: This observation led to investigate the effect of UAG treatment on BM CAC mobilization. To this end, normal subject and diabetic patients were treated with UAG or saline for 6 hours. After treatment, CAC were recovered from 4 control subjects and 4 diabetic patients, analyzed by FACS analysis and counted. […] Black lines refer to preimmune IgG used as negative control and grey lines refer to surface marker expression. Similar results were obtained when CAC from untreated diabetic patients or untreated or treated healthy subjects were analyzed (data not shown).
as §1
Mobilization assay—CAC recovered from healthy subjects and diabetic patients, treated with UAG or saline for 6 h and 12 h, were evaluated. Total number of MNC was counted by 3 independent investigators. The percentage of CAC was calculated by comparing CAC obtained from diabetic patients and healthy donors, treated for 6 h and 12 h with UAG, AG or saline, to CAC recovered at time 0.

CAC [5] = test: Expansion (S phase) of CAC recovered from treated patients, cultured with IL-3; type: in vivo, human; details: cells recovered from treated diabetic patients; FIG. 3C
Protocol: (§2) To confirm their vascular features, the cells recovered from patients and controls were cultured with IL-3; which is able to induce expansion and arterial morphogenesis of CD45^+ cells derived from both peripheral blood and BM (Ref. 28).
Flow Cytometry—To analyze CAC cell-cycle progression, cells recovered from diabetic, healthy subjects, NOD/SCID, ob/ob and wt mice, were cultured in EBM-2 supplemented with IL-3 (10 ng/ml), FACS analysis was performed as previously described (Ref. 20). Cell surface molecules were evaluated by flow cytometry as previously described (Ref. 24). Frequency of marker-positive cells is expressed as mean±standard deviation (SD).

CAC [6] = test: Arterial morphogenesis by Q-RT-PCR (Ephrin B2, Notch1, Notch4, EphB4) of CAC from treated patients; type: in vivo, human; details: cells obtained from treated patients, cultured with IL-3; FIG. 3D
Protocol: as §2
RNA isolation and quantitative real-time PCR—CAC from diabetic patients, healthy subjects and mice treated with UAG or saline were cultured in EGM-2 medium. Human arterial and venous cells were used as a positive controls. mRNA quantification was performed by Q-RT-PCR, as previously described (Ref. 24). The relative expression of Ephrin B2, Notch1, Notch4 and EphB4 were calculated by using comparative threshold cycle methods. The human and murine primer sequences used were described (Refs. 25, 26).

CAC membranes = test: Competition binding with [125I-Tyr4]-UAG on CAC membranes; design: species or system human; details: 100 nM competitor, 0.25 nM radioligand; FIG. 5A
From the text: The specific binding of [^125I-Tyr^4]-UAG (calculated as difference between binding in the absence, control, and in the presence of UAG) represented about 75% of the control value (P<0.001) and was detected either on fresh (0.25 and 0.26 fmol) or frozen-thawed (0.20 and 0.33 fmol) CAC membranes from two different cell preparations.

human arteries = details: Ref. 35; cited from earlier work

## 1-NH2Gly-Ser-Ser-Phe-Leu-Ser-Pro-Glu-His-Gln-Arg-Val-Gln-Gln-Arg-Lys-Glu-Ser-Lys-Lys-Pro-Pro-Ala-Lys-Leu-Gln-Pro-Arg-28 (H-GSSFLSPEHQRVQQRKESKKPPAKLQPR; ends and bridges not checked; listed as Homo sapiens) [UAG]
CAC [1]
  percentage of cells in S phase: significant increase in the percentage of cells in S phase
CAC [2]; AGE-cultured CAC, FIG. 1C, 1F
  level of ROS production in AGE-cultured cells: the level of ROS production in AGE-cultured cells was reduced
CAC [2]; CAC isolated from type 2 diabetic patients, treated in vitro, FIG. 1D
  intracellular ROS production in diabetic-recovered cells: reduced intracellular ROS production
CAC [2]; CAC, compared to untreated cells, FIG. 1B, 1E
  baseline level of ROS production: drastically reduces the baseline level of ROS production
CAC [3]
  number of senescent cells: reduced the number of senescent cells
CAC [4]
  number of recovered cells (CAC): strong increase in the number of recovered cells
CAC [5]
  cell expansion (cells in S phase) with IL-3: underwent cell expansion
CAC [6]
  arterial specification (Ephrin B2, Notch1, Notch4; EphB4): able to undergo arterial specification
CAC membranes
  inhibition of binding of [125I-Tyr4]-UAG to CAC membranes: inhibited
Human arteries
  vasodilator action: have vasodilator actions in human arteries
